# Results: patent US20180092866A1, “SUBSTITUTED N-([1,1'-BIPHENYL]-3-YL)-[1,1'-BIPHENYL]-3-CARBOXAMIDE ANALOGS AS INHIBITORS FOR BETA-CATENIN/B-CELL LYMPHOMA 9 INTERACTIONS” (University of Utah Research Foundation, priority 2015, published 2018)
# Where a name gives a salt, the structure may show the parent alone.
# Target: T1, β-catenin/BCL9 protein-protein interactions (Homo sapiens, UniProt P35222)
# T1 construct: C-terminally His6-tagged wild-type or mutant β-catenin (residues 138-686) proteins; made in house; host or cells: E. coli BL21 DE3
# T1 sequence (P35222 138-686): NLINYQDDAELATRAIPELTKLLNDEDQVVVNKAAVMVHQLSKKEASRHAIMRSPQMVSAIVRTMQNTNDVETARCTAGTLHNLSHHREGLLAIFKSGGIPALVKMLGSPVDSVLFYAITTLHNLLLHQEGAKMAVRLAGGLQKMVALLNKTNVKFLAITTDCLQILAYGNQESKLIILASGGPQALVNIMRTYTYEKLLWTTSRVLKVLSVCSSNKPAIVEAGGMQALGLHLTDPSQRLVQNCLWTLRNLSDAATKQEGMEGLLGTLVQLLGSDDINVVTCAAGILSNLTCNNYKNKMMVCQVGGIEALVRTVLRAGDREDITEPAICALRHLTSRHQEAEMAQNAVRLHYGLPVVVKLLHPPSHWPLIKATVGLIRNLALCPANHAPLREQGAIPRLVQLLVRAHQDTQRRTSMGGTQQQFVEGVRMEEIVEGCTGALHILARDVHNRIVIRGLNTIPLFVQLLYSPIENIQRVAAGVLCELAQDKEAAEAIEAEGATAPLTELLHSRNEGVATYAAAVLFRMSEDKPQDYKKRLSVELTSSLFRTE
# Assay: AlphaScreen competitive inhibition assay, wild-type β-catenin/BCL9
# Format: binding
# Conditions: for relative inhibitory potency for β-catenin/BCL9 PPIs (in words): comparison with named compound; for Ki: wild-type β-catenin (residues 138-686)/biotinylated BCL9 26-mer, Ki derived from IC50, mean ± SD; for fold less potent than 17: relative to compound 17
# Procedure: The purity of the wild-type and mutant β-catenin proteins was all greater than 95% as determined by the SDS-PAGE gel analysis. Both the wild-type and mutant β-catenin proteins are stable under the testing conditions. Native non-denaturing gel electrophoresis was performed to confirm the homogeneity of the purified proteins. Experiments were performed in white opaque 384-well plates from PerkinElmer, and the samples were read on a Synergy 2 plate reader (Biotek) with a sensitivity setting of 200 using AlphaScreen protocol with excitation at 680 nm and emission at 570 nm. All dilutions were made in 1×assay buffer containing 25 mM HEPES (pH=7.0), 100 mM NaCl, 0.01% Triton X-100, and 0.1% BSA. In the AlphaScreen competitive inhibition assay, 40 nM of C-terminally His6-tagged wild-type or mutant β-catenin (residues 138-686) proteins was incubated with 5 nM of N-terminal biotinylated human BCL9 26-mer (residues 350-375) for 30 min at 4° C., and then different concentrations of the tested inhibitors in the assay buffer were added to make a final volume of 20 μL. The mixture was incubated at 4° C. for 2 h. The donor and acceptor beads were added to a final concentration of 10 μg/mL in 25 μL of assay buffer. The mixture was incubated at 4° C. for 1 h. The IC50 value was determined by nonlinear least-square analysis of GraphPad Prism 5.0. […] The Ki values were derived from the IC50 values by a reported method (Nikolovska-Coleska et al. (2004) Anal. Biochem. […]: 261-273). Experiments were performed in triplicate and carried out in the presence of 1% DMSO.
Ki [µM],Structure (SMILES),other results
–,"Cl.NCCCc1ccc(C(N)=O)cc1-c1ccc(F)cc1 [Compound 6, 3-(5-Carbamoyl-4′-fluoro-[1,1′-biphenyl]-2-yl) propan-1-aminium chloride]","fold more potent than 4 (AlphaScreen assay, relative to compound 4): 5 fold"
–,"Cl.NCc1ccc(C(N)=O)cc1-c1ccc(F)cc1 [Compound 7, (5-Carbamoyl-4′-fluoro-[1,1′-biphenyl]-2-yl)methanaminium chloride]",relative inhibitory potency for β-catenin/BCL9 PPIs (in words) (AlphaScreen assay): less potent than 6
–,"NC(=O)c1ccc(CCCO)c(-c2ccc(F)cc2)c1 [Compound 8, 4′-Fluoro-6-(3-hydroxypropyl)-[1,1′-biphenyl]-3-carboxamide]",relative inhibitory potency for β-catenin/BCL9 PPIs (in words) (AlphaScreen assay): less potent than 6
33.6 ± 4.34,"Cl.NCCOc1ccc(C(=O)Nc2cccc(-c3ccc(F)cc3)c2)cc1-c1ccc(F)cc1 [Compound 9, 2-((4′-Fluoro-5-((4′-fluoro-[1,1′-biphenyl]-3-yl)carbamoyl)-[1,1′-biphenyl]-2-yl)oxy) ethanaminium chloride]",relative inhibitory potency for β-catenin/BCL9 PPIs (in words) (AlphaScreen assay): higher potency than 14
27.7 ± 3.67,"NCCOc1ccc(C(=O)Nc2cccc(-c3ccc(F)c(F)c3)c2)cc1-c1ccc(F)cc1 [Compound 10, 2-((5-((3′,4′-Difluoro-[1,1′-biphenyl]-3-yl)carbamoyl)-4′-fluoro-[1,1′-biphenyl]-2-yl)oxy) ethanaminium chloride]",–
87.1 ± 4.95,"NCCOc1ccc(C(=O)Nc2cccc(-c3ccc(Cl)c(F)c3)c2)cc1-c1ccc(F)cc1 [Compound 11, 2-((5-((4′-Chloro-3′-fluoro-[1,1′-biphenyl]-3-yl)carbamoyl)-4′-fluoro-[1,1′-biphenyl]-2-yl)oxy) ethanaminium chloride]",–
149 ± 5.69,"NCCOc1ccc(C(=O)Nc2cccc(-c3ccc(Cl)cc3F)c2)cc1-c1ccc(F)cc1 [Compound 12, 2-((5-((4′-Chloro-2′-fluoro-[1,1′-biphenyl]-3-yl)carbamoyl)-4′-fluoro-[1,1′-biphenyl]-2-yl)oxy) ethanaminium chloride]",–
29.3 ± 3.85,"Cl.NCCOc1ccc(C(=O)Nc2cccc(-c3ccc(F)cc3)c2)cc1-c1ccc(F)c(F)c1 [Compound 13, 2-((3′,4′-Difluoro-5-((4′-fluoro-[1,1′-biphenyl]-3-yl)carbamoyl)-[1,1′-biphenyl]-2-yl)oxy) ethanaminium chloride]",relative inhibitory potency for β-catenin/BCL9 PPIs (in words) (AlphaScreen assay): higher potency than 14
74 ± 3.48,"NCCOc1ccc(C(=O)Nc2cccc(-c3ccc(F)cc3)c2)cc1-c1ccc(Cl)c(F)c1 [Compound 14, 2-((4′-Chloro-3′-fluoro-5-((4′-fluoro-[1,1′-biphenyl]-3-yl)carbamoyl)-[1,1′-biphenyl]-2-yl)oxy) ethanaminium chloride]",–
32.4 ± 4.24,"NCCOc1ccc(C(=O)Nc2cccc(-c3ccc(F)cc3)c2)cc1-c1ccsc1 [Compound 15, 2-(4-((4′-Fluoro-[1,1′-biphenyl]-3-yl)carbamoyl)-2-(thiophen-3-yl)phenoxy) ethanaminium chloride]",–
36.8 ± 2.72,"O=C(Nc1ccc(OCCO)c(-c2ccc(F)cc2)c1)c1ccc(OCCO)c(-c2ccc(F)c(F)c2)c1 [Compound 18, 3′,4′-Difluoro-N-(4′-fluoro-6-(2-hydroxyethoxy)-[1,1′-biphenyl]-3-yl)-6-(2-hydroxyethoxy)-[1,1′-biphenyl]-3-carboxamide]",fold less potent than 17 (AlphaScreen assay): 6 fold
–,"Cc1ccc(NC(=O)c2ccc(C)c(-c3ccc(F)c(F)c3)c2)cc1-c1ccc(F)cc1 [Compound 19, 3′,4′-Difluoro-N-(4′-fluoro-6-methyl-[1,1′-biphenyl]-3-yl)-6-methyl-[1,1′-biphenyl]-3-carboxamide]",fold less potent than 17 (AlphaScreen assay): 65 fold
17 ± 1.99,"O=C(Nc1ccc(OC2CNC2)c(-c2ccc(F)cc2)c1)c1ccc(OC2CNC2)c(-c2ccc(F)c(F)c2)c1 [Compound 22, 3-((5-(6-(azetidin-1-ium-3-yloxy)-3′,4′-difluoro-[1,1′-biphenyl]-3-ylcarboxamido)-4′-fluoro-[1,1′-biphenyl]-2-yl)oxy)azetidin-1-ium chloride]",–
201 ± 9.29,"Cc1cc(C(=O)Nc2ccc(O[C@H]3CCNC3)c(-c3ccc(F)cc3)c2)ccc1O[C@H]1CCNC1 [Compound 24, (S)-3-((4′-fluoro-5-(3-methyl-4-((S)-pyrrolidin-1-ium-3-yloxy)benzamido)-[1,1′-biphenyl]-2-yl)oxy) pyrrolidin-1-ium chloride]",–
8.45 ± 2.65,"O=C(Nc1ccc(O[C@H]2CCNC2)c(-c2ccc(F)cc2)c1)c1ccc(O[C@H]2CCNC2)c(-c2ccc3ccccc3c2)c1 [Compound 25, (S)-3-((4′-fluoro-5-(3-(naphthalen-2-yl)-4-((S)-pyrrolidin-1-ium-3-yloxy)benzamido)-[1,1′-biphenyl]-2-yl)oxy) pyrrolidin-1-ium chloride]",–
78.6 ± 10.4,"O=C(Nc1cnc(O[C@H]2CCNC2)c(-c2ccc(F)cc2)c1)c1ccc(O[C@H]2CCNC2)c(-c2ccc(F)c(F)c2)c1 [Compound 84a, 3′,4′-Difluoro-N-(5-(4-fluorophenyl)-6-((S)-pyrrolidin-3-yloxy)pyridin-3-yl)-6-((S)-pyrrolidin-3-yloxy)-[1,1′-biphenyl]-3-carboxamide dihydrochloride]",–
84.2 ± 14.8,"O=C(Nc1ccc(O[C@H]2CCNC2)c(-c2ccc(F)cc2)c1)c1cnc(O[C@H]2CCNC2)c(-c2ccc(F)c(F)c2)c1 [Compound 84b, 5-(3,4-difluorophenyl)-N-(4′-fluoro-6-((S)-pyrrolidin-3-yloxy)-[1,1′-biphenyl]-3-yl)-6-((S)-pyrrolidin-3-yloxy)nicomide dihydrochloride]",–
68.6 ± 14.9,"O=C(Nc1cnc(O[C@H]2CCNC2)c(-c2ccc(F)cc2)c1)c1cnc(O[C@H]2CCNC2)c(-c2ccc(F)c(F)c2)c1 [Compound 84c, 5-(3,4-difluorophenyl)-N-(5-(4-fluorophenyl)-6-((S)-pyrrolidin-3-yloxy)pyridin-3-yl)-6-((S)-pyrrolidin-3-yloxy)nicotinamide dihydrochloride]",–

Structure (SMILES),Ki [µM],other results
"Cl.Cl.NCCOc1ccc(NC(=O)c2ccc(OCCN)c(-c3ccc(F)c(F)c3)c2)cc1-c1ccc(F)cc1 [Compound 17, 2-((5-(6-(2-Ammonioethoxy)-3′,4′-difluoro-[1,1′-biphenyl]-3-ylcarboxamido)-4′-fluoro-[1,1′-biphenyl]-2-yl)oxy) ethanaminium chloride]",6.12 ± 1.53,relative inhibitory potency for β-catenin/BCL9 PPIs (in words) (AlphaScreen assay): more potent than 9 and 13
"O=C(Nc1ccc(O[C@@H]2CCNC2)c(-c2ccc(F)cc2)c1)c1ccc(O[C@@H]2CCNC2)c(-c2ccc(F)c(F)c2)c1 [Compound 26, (R)-3-((3′,4′-difluoro-5-((4′-fluoro-6-(((R)-pyrrolidin-1-ium-3-yl)oxy)-[1,1′-biphenyl]-3-yl)carbamoyl)-[1,1′-biphenyl]-2-yl)oxy) pyrrolidin-1-ium chloride]",4.08 ± 0.355,–
"O=C(Nc1ccc(O[C@H]2CCNC2)c(-c2ccc(F)cc2)c1)c1ccc(O[C@@H]2CCNC2)c(-c2ccc(F)c(F)c2)c1 [Compound 27, (R)-3-((3′,4′-difluoro-5-((4′-fluoro-6-(((S)-pyrrolidin-1-ium-3-yl)oxy)-[1,1′-biphenyl]-3-yl)carbamoyl)-[1,1′-biphenyl]-2-yl)oxy) pyrrolidin-1-ium chloride]",5.6 ± 0.514,–
"O=C(Nc1ccc(O[C@@H]2CCNC2)c(-c2ccc(F)cc2)c1)c1ccc(O[C@H]2CCNC2)c(-c2ccc(F)c(F)c2)c1 [Compound 28, (S)-3-((3′,4′-difluoro-5-((4′-fluoro-6-(((R)-pyrrolidin-1-ium-3-yl)oxy)-[1,1′-biphenyl]-3-yl)carbamoyl)-[1,1′-biphenyl]-2-yl)oxy) pyrrolidin-1-ium chloride]",3.41 ± 0.354,–
"COC(=O)c1ccc(OCCNC(=O)OC(C)(C)C)c(Br)c1 [Compound 30, Methyl-3-bromo-4-(2-((tert-butoxycarbonyl)amino)ethoxy) benzoate]",156 ± 3.96,–
"COC(=O)c1ccc(OCCNC(=O)OC(C)(C)C)c(-c2ccc(F)cc2)c1 [Compound 31, Methyl-6-(2-((tert-butoxycarbonyl)amino)ethoxy)-4′-fluoro-[1,1′-biphenyl]-3-carboxylate]",180 ± 4.84,–
